From ChEMBL document CHEMBL5226309, “Synthetic RNA Modulators in Drug Discovery” (J Med Chem, 2021)
Values belong to the compound of their own block, whether it stands above or below them.

Experiments:
[1] = Binding affinity to miR-21 (unknown origin) at 5 uM by differential scanning fluorometry analysis relative to control
[2] = Binding affinity to miR-21 (unknown origin) assessed as dissociation constant
HEK293 [3] = test: Inhibition of miR-125a in human HEK293 cells relative to control; format: cell-based; conditions: dose or concentration not given here
[4] = Downregulation of alpha-Synuclein level in human SH-SY5Y cells at 5 uM relative to control; format: functional
AGS = test: Inhibition of miR-21 in human AGS cells assessed as decrease in pre-miR-21 level relative to control; format: cell-based; conditions: dose or concentration not given here
[5] = Inhibition of miR-21 in human AGS cells assessed as decrease in pre-miR-21 level; format: cell-based
A498 = test: Antiproliferative activity against human A498 cells assessed as reduction in cell viability by XTT assay; format: functional, cell-based
[6] = Antiproliferative activity against human U87 cells assessed as reduction in cell viability by XTT assay; format: functional, cell-based, U-87MG ATCC; conditions: U-87 MG
HeLa [7] = test: Inhibition of miR-21 in human HeLa cells assessed as reduction in relative light unit at 10 uM by luciferase reporter assays relative to control; format: cell-based
[8] = Inhibition of miR-21 (unknown origin) at 1 uM by differential scanning fluorometry analysis relative to control
[9] = Binding affinity to HIV-1 mRNA assessed as dissociation constant; parameters: species or system Human immunodeficiency virus 1
[10] = Inhibition of miR-21 (unknown origin) by luciferase reporter assays relative to control; conditions: concentration not given here
[11] = Inhibition of miR-21 (unknown origin) maturation assessed as reduction in pre-miR-21 expression at 10 uM by RT-PCR analysis relative to control
[12] = Upregulation of miR-122 expression in human Huh-7 cells at 10 uM incubated for 48 hrs by RT-PCR analysis relative to control; format: functional
[13] = Downregulation of miR-122 expression in human Huh-7 cells at 10 uM incubated for 48 hrs by RT-PCR analysis relative to control; format: functional
Hepatitis C virus = test: Antiviral activity against HCV JFH-1 infected in human Huh-7 cells assessed as reduction in viral replication measured after 48 hrs by RT-PCR analysis relative to control; format: functional, Hepacivirus hominis; parameters: scale not given: the % may be the effect or the level left
[14] = Inhibition of 5'FAM-labeled and 3'DAB-labeled Precursor microRNA-372 (unknown origin) assessed as inhibition of Dicer-induced pre-miR-372 cleavage by measuring fluorescence incubated for 30 min in presence of human recombinant Dicer by FRET Dicer assay
[15] = Inhibition of 5'FAM-labeled and 3'DAB-labeled Precursor microRNA-373 (unknown origin) assessed as inhibition of Dicer-induced pre-miR-373 cleavage by measuring fluorescence incubated for 30 min in presence of human recombinant Dicer by FRET Dicer assay
[16] = Induction of mRNA mediated IPRF assessed as increase in frame shifting efficiency at 10 uM relative to control
[17] = Induction of mRNA mediated IPRF assessed as increase in frame shifting efficiency at 10 uM in presence of M2-VPK sequence relative to control
HeLa [18] = test: Induction of mRNA mediated IPRF in human HeLa cells assessed as increase in frame shifting efficiency at 10 uM in presence of F-VPK sequence relative to control; format: cell-based
HeLa [19] = test: Induction of mRNA mediated IPRF in human HeLa cells assessed as increase in frame shifting efficiency at 0.3 uM in presence of M1-FPK sequence relative to control; format: cell-based
HeLa [20] = test: Induction of mRNA mediated IPRF in human HeLa cells assessed as increase in frame shifting efficiency at 0.3 uM in presence of M2-FPK sequence relative to control; format: cell-based
[21] = Induction of apoptosis in human U-87 MG cells; format: functional, U-87MG ATCC
HeLa [22] = test: Induction of apoptosis in human HeLa cells; format: functional
HEK293 [23] = test: Inhibition of miR-125a in human HEK293 cells assessed as increase in mature miR-21 level at 50 uM relative to control; format: cell-based
HEK293 [24] = test: Inhibition of miR-125a in human HEK293 cells assessed as increase in pre miR-21 level at 50 uM relative to control; format: cell-based

Activity [1]: 140% | Kd [2]: 0.00436 µM
Structure (SMILES): NC[C@H]1O[C@H](O[C@H]2[C@H](O)[C@@H](O[C@H]3O[C@H](CNC(=O)CCC(=O)N[C@@H](Cc4ccccc4)C(=O)N[C@@H](CS)C(N)=O)[C@@H](O)[C@H](N)[C@H]3O)[C@H](N)C[C@@H]2N)[C@H](O)[C@@H](O)[C@@H]1O

Structure (SMILES): CCn1cc(C(=O)NC(C)(C)C)c(=O)c2cc(F)c(N3CCNCC3)nc21
inhibition (HEK293 [3]): 20%

Structure (SMILES): c1cc(C2=NCCN2)ccc1Oc1ccc(-c2nc3ccc(C4=NCCN4)cc3[nH]2)cc1
Activity [4]: 40%

IC50 [5]: 2.42 µM
Structure (SMILES): CC(=O)Nc1csc(-c2cccc(NC(=O)CCc3cn(C[C@H]4O[C@@H](O[C@@H]5[C@@H](O)[C@H](N)C[C@H](N)[C@H]5O[C@H]5O[C@H](CN)[C@@H](O)[C@H](O)[C@H]5N)[C@H](O)[C@@H]4O[C@H]4O[C@@H](CN)[C@@H](O)[C@H](O)[C@H]4N)nn3)c2)n1
inhibition (AGS): 100%

Structure (SMILES): CCn1cc(C(=O)NCc2ccccc2)c(=O)c2cc(F)c(N3CCNCC3)nc21
inhibition (HEK293 [3]): 30%

Structure (SMILES): C#CCOc1ccc(-c2noc(-c3nnn(-c4cccc(/C(C)=N/O)c4)c3N)n2)cc1
IC50 (A498): 100 µM | IC50 [6]: 3.3 µM | RLU (HeLa [7]): 2.19

inhibition [8]: 59%
Structure (SMILES): COc1ccc(NCC(O)Cn2c3ccc(Br)cc3c3cc(Br)ccc32)cc1 (centres undefined)

Kd [9]: 2.4 µM
Structure (SMILES): CC(=O)Nc1nc(-c2cccc(NC(=O)C(CNC(=O)[C@@H](N)CCCNC(=N)N)NC(=O)[C@@H](N)CCCNC(=N)N)c2)cs1 (some centres undefined)

inhibition [10]: 11% | inhibition [11]: 78%
Structure (SMILES): C#CCNC(=O)c1ccc(/N=N/c2ccccc2)cc1

Structure (SMILES): CN(C)CCN1C(=O)c2cccc3cc(N)cc(c23)C1=O [AMONAFIDE]
Activity [12]: 450%

Structure (SMILES): O=C(Nc1ccc2ccccc2c1)c1ccc(Cl)cc1Cl
Activity [13]: 72% | Activity (Hepatitis C virus): 48%

IC50 [14]: 1.08 µM | IC50 [15]: 1.1 µM
Structure (SMILES): NC[C@@H]1O[C@H](O[C@H]2[C@@H](O)[C@H](O[C@@H]3[C@@H](O)[C@H](N)C[C@H](N)[C@H]3O[C@H]3O[C@H](CN)[C@@H](O)[C@H](O)[C@H]3N)O[C@@H]2Cn2cc(CCC(=O)Nc3ccc(-c4csc(NC(=O)c5ccc(N)cc5)n4)cc3)nn2)[C@H](N)[C@@H](O)[C@@H]1O

Activity [16]: 13% | Activity [17]: 15%
Structure (SMILES): Cc1ccc2ccc(NC(=O)CCN(CCCCCCCCN(CCC(=O)Nc3ccc4ccc(C)nc4n3)CCC(=O)Nc3ccc4ccc(C)nc4n3)CCC(=O)Nc3ccc4ccc(C)nc4n3)nc2n1
Activity (HeLa [18]): 21% | Activity (HeLa [19]): 0.35% | Activity (HeLa [20]): 0.32%

Structure (SMILES): C#CCNC(=O)c1ccc(NC(=O)c2ccccc2Br)cc1
Activity [21]: 13% | Activity (HeLa [22]): 24%

Structure (SMILES): CCn1cc(C(=O)O)c(=O)c2cc(F)c(N3CCNCC3)nc21
inhibition (HEK293 [23]): 150% | inhibition (HEK293 [24]): 100% | inhibition (HEK293 [3]): 100%
